Data reported in patent publication US9821072B2, “Activated neurotensin molecules and the uses thereof” (priority 2014, dated 2017).
Bridge positions count the residues as written; N and C are the ends. Square brackets hold non-standard residues; d marks the D form. Peptide text beside a SMILES is read from it. * marks the point of attachment. Pen = CC(C)(S)[C@H](N)C(=O)O; Tle = CC(C)(C)[C@H](N)C(=O)O; Pip = O=C(O)[C@@H]1CCCCN1; Propionyl = CCC(=O)*; Sar = CNCC(=O)O

Key:
Sprague-Dawley rats = assay: Hypothermic response after i.v. bolus in Sprague-Dawley rats; assay type: in vivo, rat; settings: 5 mg/kg eq. NT i.v. bolus
[1] = target: T1, human neurotensin receptor type 1 (hNTR-1) (Homo sapiens, UniProt P30989); assay: Competition binding assay with [3H]-neurotensin on human NTR-1 membranes (CHO cells); settings: read-out: NTR-1 binding affinity Ki, Human NTR-1
T1 construct: purchased PerkinElmer; host or cells: CHO cells stably expressing human NTR-1 (membrane homogenates)
T1 sequence (P30989 whole entry): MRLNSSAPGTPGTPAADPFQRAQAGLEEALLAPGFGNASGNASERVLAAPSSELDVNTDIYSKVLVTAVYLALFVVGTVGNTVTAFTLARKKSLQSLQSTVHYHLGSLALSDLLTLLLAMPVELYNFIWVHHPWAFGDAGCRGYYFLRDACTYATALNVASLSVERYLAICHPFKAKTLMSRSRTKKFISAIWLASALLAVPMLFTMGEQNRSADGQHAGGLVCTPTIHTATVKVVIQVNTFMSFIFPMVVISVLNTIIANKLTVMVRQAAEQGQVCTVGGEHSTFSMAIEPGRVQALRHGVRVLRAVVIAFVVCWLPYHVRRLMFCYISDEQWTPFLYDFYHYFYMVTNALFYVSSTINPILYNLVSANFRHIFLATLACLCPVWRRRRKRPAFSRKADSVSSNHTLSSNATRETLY

[2] = target: T2, rat neurotensin receptor type 1 (rNTR-1) (Rattus norvegicus, UniProt P20789); assay: Competition binding assay with [3H]-neurotensin on rat NTR-1 membranes (HEK293 cells); settings: read-out: NTR-1 binding affinity Ki, Rat NTR-1
T2 construct: host or cells: HEK293 cells (membrane homogenates)
T2 sequence (P20789 whole entry): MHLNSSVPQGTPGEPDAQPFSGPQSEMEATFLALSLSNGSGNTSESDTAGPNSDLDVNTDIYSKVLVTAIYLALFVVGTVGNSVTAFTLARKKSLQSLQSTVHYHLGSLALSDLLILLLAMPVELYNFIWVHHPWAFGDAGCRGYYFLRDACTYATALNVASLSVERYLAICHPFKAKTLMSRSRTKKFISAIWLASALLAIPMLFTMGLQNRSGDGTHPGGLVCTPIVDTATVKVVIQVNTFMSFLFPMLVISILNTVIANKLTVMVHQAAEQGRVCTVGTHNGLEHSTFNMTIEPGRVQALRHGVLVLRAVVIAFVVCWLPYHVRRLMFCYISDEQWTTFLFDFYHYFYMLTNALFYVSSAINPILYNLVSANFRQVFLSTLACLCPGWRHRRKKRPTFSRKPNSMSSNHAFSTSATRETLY

[3] = system: FVB/N mice with KA-induced status epilepticus; assay: Kainic acid-induced status epilepticus model (body temperature, seizures, neurodegeneration, neuroinflammation, mossy fiber sprouting); assay type: in vivo, mouse; settings: administered 30 min after SE onset
Excerpt: In the present case, excitotoxicity was induced by subcutaneous (s.c.) injection of kainic acid (KA), a pro-convulsant agent known to induce a status epilepticus (SE) with excitotoxicity, neuroinflammation, and severe neuronal damage in the hippocampus that can be observed 3 to 7 days after KA administration, and with aberrant axonal sprouting of the dentate gyrus mossy fibers that can be observed at 7-8 weeks after KA administration. We tested the effect of compound XIV on i) epileptic activity (persistence of recurrent seizures), ii) neurodegeneration, neuroinflammation and the resulting brain tissue damage and iii) aberrant axonal sprouting of the dentate gyrus mossy fibers.
FVB/N adult male mice were injected with a single dose of KA (40-45 mg/kg s.c.) to generate mice with spontaneous recurrent seizures as a hallmark of SE. A negative control group of mice were administered saline 0.9% instead of KA and no further treatment (“SHAM”, n=5). Thirty minutes after the onset of SE, mice received either an intravenous (tail vein) bolus injection of compound XIV at the dose of 4 mg/kg eq. NT (treatment group “SE+HT”, n=5) or saline 0.9% (group “SE”, n=5), or a high dose of diazepam (DZP) at 15 mg/kg), a potent anti-convulsive and anti-epileptic drug (positive control group “SE+DZP”). Body temperature was monitored before KA injection and then every 15 min during 6 hours thereafter, using a rectal probe. During this period, mice were assessed for the occurrence and severity of motor seizures. One week later, animals were sacrificed for histological assessment of neuronal cell death on coronal sections, the hippocampal formation being the main structure in the brain showing tissue damage in this model of excitotoxicity. Another group of animals with the same treatments was sacrificed 8 weeks for histological assessment of aberrant axonal sprouting of the dentate gyrus mossy fibers.
Administration of KA (40-45 mg/kg; s.c.) caused characteristic sequential behavioral changes. Immediately after being injected, all animals developed immobility (stage 1). Within 30 minutes after KA injection, automatisms with head nodding, forelimb clonus and circling behavior (stages 2-3) were observed. Then most animals progressed to intermittent (stage 4) followed by continuous (stage 5) rearing with forelimb clonus and falling behavior. […] Only animals attaining at least Racine stage 5 seizures were included in the study. The SE occurred around 2 hours after KA injection, was characterized by stage 5-6 seizures and often associated with hyperthermia (FIG. 13A). Compound XIV administered 30 min after SE onset (SE30) invariably led to transient hypothermia (FIG. 13A), which persisted at least 2 hrs. Mean decreases in body temperature (BT) of −2.5° C. and −3.6° C. were respectively recorded for SE30+ compound XIV animals as compared to SE animals (F=52.34; ***P<0.001). […] SE30+ compound XIV animals presented an average of stage 2 seizures or fewer during the rest of experiment. A subset of animals was administered i.p. a high dose of diazepam (DZP). […] Thus, administration of compound XIV at the dose of 4 mg/kg eq. […] This effect correlated with a −3 to −6° C. decrease in body temperature during ˜2.5 hours.
Using the anti-NeuN antibody and Fluoro-jade C that respectively label a neuronspecific nuclear protein and neuronal death, we observed a broad loss of CA1 and CA3 pyramidal cells as well as some dentate hilar neurons in the hippocampus of control SE animals (FIG. 14A, panel B), as compared to SHAM animals (FIG. 14A, panel A).
SE-induced gliosis involved microglia and astroglial cell types. We used GFAP and Iba1 immunolabeling to estimate the effect of compound XIV on neuroinflammation. In SHAM animals, a basal labeling for GFAP and Iba1 was detected in the HF (FIG. 14A, panel D). In SE animals, a very strong activation of glial cells occurred in all hippocampal layers (FIG. 14, panels E, H). […]

SMILES	Maximal decrease in body temperature (Sprague-Dawley rats; 60 to 90 min post-injection)	Ki [1] [nM]	Ki [2] [nM]	further results
CCC(=O)N[C@@H]1CSSC[C@@H](C(=O)N[C@@H](CCCNC(=N)N)C(=O)N[C@@H](CCCNC(=N)N)C(=O)N2CCC[C@H]2C(=O)N[C@@H](Cc2ccc(O)cc2)C(=O)N[C@H](C(=O)N[C@@H](CC(C)C)C(=O)O)[C@@H](C)CC)NC(=O)CN(C)C(=O)[C@H](CCCNC(=N)N)NC(=O)[C@H](CC(C)C)NC(=O)[C@H](CCCNC(=N)N)NC(=O)[C@@H]2CCCCN2C(=O)[C@H](CCSC)NC1=O [Compound IX, Pr-cMPipRLRSarC-RRPYIL-OH]				Maximal decrease in body temperature (Sprague-Dawley rats; 30 min post-injection): −1.2 °C
CCC(=O)N[C@@H]1CSSC[C@@H](C(=O)N[C@@H](CCCNC(=N)N)C(=O)N[C@@H](CCCNC(=N)N)C(=O)N2CCC[C@H]2C(=O)N[C@@H](Cc2ccc(O)cc2)C(=O)N[C@H](C(=O)N[C@@H](CC(C)C)C(=O)O)C(C)(C)C)NC(=O)CN(C)C(=O)[C@H](CCCNC(=N)N)NC(=O)[C@H](CC(C)C)NC(=O)[C@H](CCCNC(=N)N)NC(=O)[C@@H]2CCCCN2C(=O)[C@H](CCSC)NC1=O [Compound XV, Pr-cMPipRLRSarC-RRPYTIeL-OH] (Propionyl-[dC]M[Pip]RLR[Sar]CRRPY[Tle]L-OH; disulfide 1-8)	around −2 °C	0.4 ± 0.2	0.06 ± 0.02	
CN1C(=O)CN=C(c2ccccc2)c2cc(Cl)ccc21 [DZP, diazepam, reference compound]				effect on body temperature (BT) compared with SE animals [3]: hypothermia was also observed; glial inflammatory response in the hippocampus (GFAP, Iba1) compared with SE animals [3]: significantly decreased; seizure stage (Racine) during the rest of the experiment [3]: 1-2 stage; number of mossy fiber terminals innervating the IML (ZnT3) compared with SE animals ([3]; 8 weeks after SE): considerably reduced; neurodegeneration in the hippocampus (NeuN, Fluoro-jade C) compared with SE animals ([3]; one week later): significantly decreased
CCC(=O)N[C@@H]1CSSC[C@@H](C(=O)N[C@@H](CCCCN)C(=O)N[C@@H](CCCNC(=N)N)C(=O)N2CCC[C@H]2C(=O)N[C@@H](Cc2c[nH]c3ccccc23)C(=O)N[C@H](C(=O)N[C@@H](CC(C)C)C(=O)O)C(C)(C)C)NC(=O)CN(C)C(=O)[C@H](CCCNC(=N)N)NC(=O)[C@H](CC(C)C)NC(=O)[C@H](CCCNC(=N)N)NC(=O)[C@@H]2CCCCN2C(=O)[C@H](CCSC)NC1=O [XIX, Pr-cMPipRLRSarC-KRPWTIeL-OH] (Propionyl-[dC]M[Pip]RLR[Sar]CKRPW[Tle]L-OH; disulfide 1-8)		6.34 ± 2.25	0.03 ± 0.02	Maximal decrease in body temperature (Sprague-Dawley rats; 90 min post-injection): around −2.8 °C
CCC(=O)N[C@@H]1CSSC[C@@H](C(=O)N[C@@H](CCCCN)C(=O)N[C@@H](CCCNC(=N)N)C(=O)N2CCC[C@H]2C(=O)N[C@@H](Cc2ccc(O)cc2)C(=O)N[C@H](C(=O)N[C@@H](CC(C)C)C(=O)O)C(C)(C)C)NC(=O)CN(C)C(=O)[C@H](CCCNC(=N)N)NC(=O)[C@H](CC(C)C)NC(=O)[C@H](CCCNC(=N)N)NC(=O)[C@@H]2CCCCN2C(=O)[C@H](CCSC)NC1=O [XVI, Pr-cMPipRLRSarC-KRPYTIeL-OH] (Propionyl-[dC]M[Pip]RLR[Sar]CKRPY[Tle]L-OH; disulfide 1-8)	around −2 °C	0.15 ± 0.06		
CCC(=O)N[C@@H]1CSSC[C@@H](C(=O)N[C@@H](CCCNC(=N)N)C(=O)N[C@@H](CCCCN)C(=O)N2CCC[C@H]2C(=O)N[C@@H](Cc2ccc(O)cc2)C(=O)N[C@H](C(=O)N[C@@H](CC(C)C)C(=O)O)C(C)(C)C)NC(=O)CN(C)C(=O)[C@H](CCCNC(=N)N)NC(=O)[C@H](CC(C)C)NC(=O)[C@H](CCCNC(=N)N)NC(=O)[C@@H]2CCCCN2C(=O)[C@H](CCSC)NC1=O [XVII, Pr-cMPipRLRSarC-RKPYTIeL-OH] (Propionyl-[dC]M[Pip]RLR[Sar]CRKPY[Tle]L-OH; disulfide 1-8)	around −2 °C	0.47 ± 0.19	0.19 ± 0.07	
CCC(=O)N[C@@H]1CSSC[C@@H](C(=O)N[C@@H](CCCNC(=N)N)C(=O)N[C@@H](CCCNC(=N)N)C(=O)N2CCC[C@H]2C(=O)N[C@@H](Cc2c[nH]c3ccccc23)C(=O)N[C@H](C(=O)N[C@@H](CC(C)C)C(=O)O)C(C)(C)C)NC(=O)CN(C)C(=O)[C@H](CCCNC(=N)N)NC(=O)[C@H](CC(C)C)NC(=O)[C@H](CCCNC(=N)N)NC(=O)[C@@H]2CCCCN2C(=O)[C@H](CCSC)NC1=O [XVIII, Pr-cMPipRLRSarC-RRPWTIeL-OH] (Propionyl-[dC]M[Pip]RLR[Sar]CRRPW[Tle]L-OH; disulfide 1-8)		2.98 ± 1.08	0.02 ± 0.01	Maximal decrease in body temperature (Sprague-Dawley rats; 90 min post-injection): around −2.8 °C
CCC(=O)N[C@@H]1CSSC(C)(C)[C@@H](C(=O)N[C@@H](CCCCN)C(=O)N[C@@H](CCCNC(=N)N)C(=O)N2CCC[C@H]2C(=O)N[C@@H](Cc2ccc(O)cc2)C(=O)N[C@H](C(=O)N[C@@H](CC(C)C)C(=O)O)C(C)(C)C)NC(=O)CN(C)C(=O)[C@H](CCCNC(=N)N)NC(=O)[C@H](CC(C)C)NC(=O)[C@H](CCCNC(=N)N)NC(=O)[C@@H]2CCCCN2C(=O)[C@H](CCSC)NC1=O [XX, Pr-cMPipRLRSarPen-KRPYTIeL-OH] (Propionyl-[dC]M[Pip]RLR[Sar][Pen]KRPY[Tle]L-OH; disulfide 1-8)	around −2 °C	0.11 ± 0.03	0.08 ± 0.06	
